# Measured values reported in patent US12534466B2, “Crystalline forms of pyrimidino diazepine derivative” (CYCLACEL LIMITED, priority 2019, dated 2026).
# Structures can show the parent of a compound that is named as a salt. Where two headings read alike, the source gives them in different places.
# Legend:
# [1] = molecular target: polo-like kinase 1 (PLK1) (Homo sapiens, UniProt P53350); conditions: cited from earlier work
# [2] = Gravimetric vapour sorption (GVS/DVS) hygroscopicity; assay type: physicochemical; conditions: for Hygroscopicity classification: weight increase from 40-80% RH (25° C.), classes of Table 9, monohydrate
# Experimental: Sorption isotherms were obtained using a Hiden Isochema moisture sorption analyser (model IGAsorp), controlled by IGAsorp Systems Software V6.50.48. The sample was maintained at a constant temperature (25° C.) by the instrument controls. The humidity was controlled by mixing streams of dry and wet nitrogen, with a total flow of 250 ml·min^−1. The instrument was verified for relative humidity content by measuring three calibrated Rotronic salt solutions (10-50-88%). The weight change of the sample was monitored as a function of humidity by a microbalance (accuracy+/−0.005 mg). A defined amount of sample was placed in a tared mesh stainless steel basket under ambient conditions. A full experimental cycle typically consisted of three scans (sorption, desorption and sorption) at a constant temperature (25° C.) and 10% RH intervals over a 0-90% range (60 minutes for each humidity level).
# polo-like kinase 1 (PLK1), sequence (P53350 whole entry): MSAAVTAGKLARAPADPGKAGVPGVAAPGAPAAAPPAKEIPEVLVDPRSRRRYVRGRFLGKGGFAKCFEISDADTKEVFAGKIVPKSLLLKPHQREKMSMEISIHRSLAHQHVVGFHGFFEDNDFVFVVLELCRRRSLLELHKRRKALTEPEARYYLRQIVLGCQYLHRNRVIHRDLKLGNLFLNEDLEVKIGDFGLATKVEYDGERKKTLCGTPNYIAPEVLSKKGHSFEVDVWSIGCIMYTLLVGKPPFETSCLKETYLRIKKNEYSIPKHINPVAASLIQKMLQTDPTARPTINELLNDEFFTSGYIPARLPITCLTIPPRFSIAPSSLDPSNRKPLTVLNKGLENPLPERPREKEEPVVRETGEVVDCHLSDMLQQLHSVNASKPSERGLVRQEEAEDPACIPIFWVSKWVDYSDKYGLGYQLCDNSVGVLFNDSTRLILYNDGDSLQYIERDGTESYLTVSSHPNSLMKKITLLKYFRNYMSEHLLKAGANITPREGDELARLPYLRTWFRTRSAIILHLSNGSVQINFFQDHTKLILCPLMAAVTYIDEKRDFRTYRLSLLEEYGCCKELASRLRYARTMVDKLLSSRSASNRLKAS
Hygroscopicity (in words) [2],Stability of the crystalline form (in words) [2],"Weight change (%) from 40 to 80% RH @25° C. (sorption cycle by GVS) ([2]; 40-80% RH, 25° C., sorption cycle)",Hygroscopicity classification ([2]; listed as monohydrochloride monohydrate salt),Hygroscopicity classification [2],SMILES,Inhibition of PLK1 (in words) [1],Inhibition of PLK1 (in words) ([1]; listed as compound (I))
–,–,–,–,–,"COc1cc(C(=O)N[C@H]2CC[C@H](N3CCN(C)CC3)CC2)ccc1Nc1ncc2c(n1)N(C1CCCC1)CC1(CC1)C(=O)N2C [Compound (I), 4-(9′-cyclopentyl-5″-methyl-6′-oxo-5′,6′,8′,9′-tetrahydrospiro[cyclopropane-1,7′-pyrimido[4,5-b][1,4]diazepine]-2′-ylamino)-N((trans)-4-(4-methylpiperazin-1-yl)cyclohexyl)-3-methoxybenzamide]",potent inhibitory activity,potent inhibitor
relatively low hygroscopicity,stable crystalline form,+0.9%,slightly hygroscopic,Slightly hygroscopic (≥0.2% and <2%),COc1cc(C(=O)N[C@H]2CC[C@H](N3CCN(C)CC3)CC2)ccc1Nc1ncc2c(n1)N(C1CCCC1)CC1(CC1)C(=O)N2C [Monohydrochloride monohydrate],–,–
